The results in this text go back to patent US7504391B2, “Selective D1/D5 receptor antagonists for the treatment of obesity and CNS disorders” (Schering Corporation, priority 2003, dated 2009).

Experiment [1] concerns the target T1, human D1 receptors (Homo sapiens, UniProt P21728).
T1 construct: expressed in transfected cells; host or cells: Ltk- cells (mouse fibroblasts); membrane preparation
Put plainly: Radioligand binding competition assay at D1 receptor. How it is done: (§1) Affinity values (Ki) of compounds at human D1 and D2 receptors were ascertained using radioligand binding competition assays. Ltk-cells expressing D1 and D2 (long variant) receptors were lysed in hypotonic buffer for membrane preparation. Membranes were incubated with various concentrations of test compound and 1 nM [3H] of a compound of formula III and 0.2 nM [3H] Methylspiperone for D1 and D2 assays, respectively. Non-specific binding was defined as binding in the presence of 10 micromolar of a compound of formula III for D1 assays and 10 micromolar butaclamol for […]. Following incubation to equilibrium (1 hour at room temperature), bound radioligand was separated from free by rapid filtration. Bound radioactivity on the dried filters was quantified by liquid scintillation counting.
(§2) Selectivity is determined by dividing Ki for D2 receptor by Ki for D1 receptor.

Experiment [2] deals with human D1 receptors. Described as above. As to conditions: Ki for D2 receptor divided by Ki for D1 receptor. How it is done:
as §1, §2

Where [3] appears, read: class by Ki (D1) and selectivity (Ki D2 / Ki D1), human D1 and D2 (long variant) receptors, Ltk- cell membranes, read-out: D1 binding and D2:D1 Selectivity.

Where two headings read alike, the source gives them in different places.

T1 sequence (P21728 whole entry): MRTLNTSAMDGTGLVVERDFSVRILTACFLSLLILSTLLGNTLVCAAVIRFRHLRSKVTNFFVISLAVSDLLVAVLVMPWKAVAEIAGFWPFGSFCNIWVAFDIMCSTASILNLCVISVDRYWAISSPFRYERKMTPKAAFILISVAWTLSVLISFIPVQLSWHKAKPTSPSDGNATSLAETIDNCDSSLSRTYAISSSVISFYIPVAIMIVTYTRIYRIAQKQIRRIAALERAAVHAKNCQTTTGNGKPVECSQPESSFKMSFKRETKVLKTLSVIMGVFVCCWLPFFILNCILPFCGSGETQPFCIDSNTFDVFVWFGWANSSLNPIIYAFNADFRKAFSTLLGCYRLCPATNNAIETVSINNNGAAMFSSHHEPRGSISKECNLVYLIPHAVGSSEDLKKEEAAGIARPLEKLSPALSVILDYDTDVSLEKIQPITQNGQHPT

`CN1CCc2cc(Cl)c(O)cc2[C@H]2c3cccc(CNCc4ccccc4)c3CC[C@@H]21` [5a1]: the Ki at human D1 receptors [1] (setting [3]) was < 5 nM.
Same read-out and setting: next, `CN1CCc2cc(Cl)c(O)cc2[C@H]2c3cccc(CNC(c4ccccc4)c4ccccc4)c3CC[C@@H]21` [5a14]: < 10 nM; `CN1CCc2cc(Cl)c(O)cc2[C@H]2c3cccc(CNC4CC4)c3CC[C@@H]21` [5a38]: < 5 nM.
Same read-out and setting: next, `CN(C)Cc1cccc2c1CC[C@H]1[C@H]2c2cc(O)c(Cl)cc2CCN1C` [5a50]: < 5 nM.
Same read-out and setting: next, `CN1CCc2cc(Cl)c(O)cc2[C@H]2c3cc(CNc4cccnc4)ccc3CC[C@@H]21` [5b46]: < 100 nM.
On to `C[C@@H](NCc1ccc(C2CN(C)CCc3cc(Cl)c(O)cc32)cc1)C1CCCCC1` (stereo partly drawn) [5c16], for which, at human D1 receptors [1] (setting [3]), the Ki is < 5 nM.
Turning to `CC(=O)N(Cc1cccc2c1CC[C@H]1[C@H]2c2cc(O)c(Cl)cc2CCN1C)c1ccccc1` [6a6], the Ki at human D1 receptors [1] (setting [3]) was 10 to 50 nM.
Turning to `CN1CCc2cc(Cl)c(O)cc2[C@H]2c3cc(CN(Cc4ccccc4)C(=O)c4ccccc4)ccc3CC[C@@H]21` [6b1], the Ki at human D1 receptors [1] (setting [3]) is 10 to 50 nM.
With `CC(=O)N(Cc1ccc(C2CN(C)CCc3cc(Cl)c(O)cc32)cc1)C1CCC1` (stereo not drawn) [6c26], the Ki at human D1 receptors [1] (setting [3]) was < 5 nM.
On the same count and under the same terms, next, `CN1CCc2cc(Cl)c(O)cc2[C@H]2c3cc(CN(Cc4ccccc4)S(C)(=O)=O)ccc3CC[C@@H]21` [7b7]: < 100 nM; `CN1CCc2cc(Cl)c(O)cc2C(c2ccc(CN(C3CCC3)S(C)(=O)=O)cc2)C1` (stereo not drawn) [7c16]: < 5 nM.
For `CN1CCc2cc(Cl)c(O)cc2C(c2ccc(CN(C)S(=O)(=O)c3ccccc3)cc2)C1` (stereo not drawn) [7c18], the Ki on human D1 receptors [1] (setting [3]) is < 5 nM.
In the case of `CCNC(=O)N(Cc1ccc(F)cc1)Cc1cccc2c1CC[C@H]1[C@H]2c2cc(O)c(Cl)cc2CCN1C` [8a3], the Ki at human D1 receptors [1] (setting [3]) lay in the range of 10 to 50 nM.
Regarding `CC(C)NC(=O)N(Cc1ccc2c(c1)[C@@H]1c3cc(O)c(Cl)cc3CCN(C)[C@H]1CC2)c1ccccc1` [8b11], at human D1 receptors [1] (setting [3]), the Ki is < 100 nM.
As to `CCCN(Cc1ccc(C2CN(C)CCc3cc(Cl)c(O)cc32)cc1)C(=O)Nc1ccccc1` (stereo not drawn) [8c33], on human D1 receptors [1] (setting [3]), the Ki was < 10 nM.
On the same count and under the same terms, next, `CN1CCc2cc(Cl)c(O)cc2C2c3cccc(C(=O)N4CCN(c5ccccn5)CC4)c3CCC21` (stereo not drawn) [13a2]: < 10 nM; `CN1CCN(C(=O)c2cccc3c2CCC2C3c3cc(O)c(Cl)cc3CCN2C)CC1` (stereo not drawn) [13a6]: 10 to 50 nM.
As to `CN1CCc2cc(Cl)c(O)cc2C2c3cccc(C(=O)NCCc4ccccc4)c3CCC21` (stereo not drawn) [13a7], on human D1 receptors [1] (setting [3]), the Ki was < 5 nM.
Still for that read-out and setting: next, `CN(C)C(=O)c1cccc2c1CCC1C2c2cc(O)c(Cl)cc2CCN1C` (stereo not drawn) [13a12]: < 10 nM.
On the same count and under the same terms, next, `CN1CCc2cc(Cl)c(O)cc2C2c3cccc(C(=O)NCc4ccccn4)c3CCC21` (stereo not drawn) [13a14]: < 10 nM; `CN1CCc2cc(Cl)c(O)cc2C2c3cccc(C(=O)NCc4cccnc4)c3CCC21` (stereo not drawn) [13a16]: < 10 nM; `CN1CCc2cc(Cl)c(O)cc2C2c3cccc(C(=O)NCc4ccncc4)c3CCC21` (stereo not drawn) [13a19]: < 10 nM.
On the same count and under the same terms, next, `CN1CCc2cc(Cl)c(O)cc2C2c3cccc(C(=O)NCCc4ccccn4)c3CCC21` (stereo not drawn) [13a20]: < 10 nM; `CN1CCc2cc(Cl)c(O)cc2C2c3cccc(C(=O)NCc4ccccc4)c3CCC21` (stereo not drawn) [13a21]: < 10 nM.
In the case of `CNC(=O)c1cccc2c1CCC1C2c2cc(O)c(Cl)cc2CCN1C` (stereo not drawn) [13a24], the Ki at human D1 receptors [1] (setting [3]) was < 5 nM.
The same measure, in the same setting: next, `CC(NC(=O)c1ccc(C2CN(C)CCc3cc(Cl)c(O)cc32)cc1)c1ccccc1` (stereo not drawn) [13d1]: 10 to 50 nM.
Molecule `CN1CCc2cc(Cl)c(O)cc2[C@H]2c3cc(S(=O)(=O)NCc4ccccc4)ccc3CC[C@@H]21` [15l] yielded a Ki at human D1 receptors [1] of 10 to 50 nM.
Regarding `CN1CCc2cc(Cl)c(O)cc2[C@H]2c3ccc(NC(=O)C4CC4)cc3CC[C@@H]21` [18a1], the Ki at human D1 receptors [1] (setting [3]) was < 5 nM.
Take `CC(=O)Nc1ccc2c(c1)CC[C@H]1[C@H]2c2cc(O)c(Cl)cc2CCN1C` [18a4]: the Ki on human D1 receptors [1] is < 10 nM.
With `CN1CCc2cc(Cl)c(O)cc2[C@H]2c3ccc(NC(=O)C4CCCC4)cc3CC[C@@H]21` [18a6], the Ki on human D1 receptors [1] is < 5 nM.
With `CN1CCc2cc(Cl)c(O)cc2[C@H]2c3ccc(NC(=O)CC4CC4)cc3CC[C@@H]21` [18a8], the Ki on human D1 receptors [1] is < 10 nM.
`CN1CCc2cc(Cl)c(O)cc2[C@H]2c3cccc(NC(=O)c4cccc5ccccc45)c3CC[C@@H]21` [18b15]: on human D1 receptors [1], the Ki was 10 to 50 nM.
The same measure, in the same setting: next, `CN1CCc2cc(Cl)c(O)cc2[C@H]2c3cccc(NS(=O)(=O)c4ccc(F)cc4)c3CC[C@@H]21` [19a6]: < 10 nM.
With `CN1CCc2cc(Cl)c(O)cc2[C@H]2c3ccc(NS(C)(=O)=O)cc3CC[C@@H]21` [19b1], the “D2:D1 ratio (selectivity)” value in the experiment on human D1 receptors [2] came to 6642. Also, the Ki on human D1 receptors [1] (setting [3]) was < 5 nM; on human D1 receptors [1] (membranes of Ltk- cells expressing human D1, 1 nM [3H] compound of formula III, 1 hour at room temperature, read-out: Ki (D1)), 0.45 nM.
With `CCS(=O)(=O)Nc1ccc2c(c1)CC[C@H]1[C@H]2c2cc(O)c(Cl)cc2CCN1C` [19b5], on human D1 receptors [1], the Ki is < 5 nM.
On the same count and under the same terms, next, `CCCS(=O)(=O)Nc1ccc2c(c1)CC[C@H]1[C@H]2c2cc(O)c(Cl)cc2CCN1C` [19b23]: < 5 nM; `CN1CCc2cc(Cl)c(O)cc2[C@H]2c3ccc(NS(=O)(=O)c4cccc(C#N)c4)cc3CC[C@@H]21` [19b24]: < 10 nM.
In the case of `CN1CCc2cc(Cl)c(O)cc2[C@H]2c3ccc(NS(=O)(=O)Cc4ccccc4)cc3CC[C@@H]21` [19b31], at human D1 receptors [1], the Ki is < 5 nM.
The same measure, in the same setting: next, `CN1CCc2cc(Cl)c(O)cc2[C@H]2c3ccc(NS(=O)(=O)N(C)C)cc3CC[C@@H]21` [19b32]: < 5 nM.
The same measure, in the same setting: next, `CN1CCc2cc(Cl)c(O)cc2[C@H]2c3cccc(NC(=O)N4CCCC4)c3CC[C@@H]21` [20a7]: < 5 nM; `CN(C)C(=O)Nc1cccc2c1CC[C@H]1[C@H]2c2cc(O)c(Cl)cc2CCN1C` [20a8]: < 5 nM.
On the same count and under the same terms, next, `CN1CCc2cc(Cl)c(O)cc2[C@H]2c3cccc(NC(=O)Nc4cc(Cl)nc(Cl)c4)c3CC[C@@H]21` [20a33]: 10 to 50 nM; `CN1CCc2cc(Cl)c(O)cc2[C@H]2c3ccc(NC(=O)Nc4ccccc4Cl)cc3CC[C@@H]21` [20b5]: < 10 nM.
For the molecule `CCNC(=O)Nc1ccc2c(c1)CC[C@H]1[C@H]2c2cc(O)c(Cl)cc2CCN1C` [20b6], the Ki at human D1 receptors [1] is < 5 nM.
For `CN1CCc2cc(Cl)c(O)cc2[C@H]2c3ccc(NC(=O)Nc4c(Cl)cccc4Cl)cc3CC[C@@H]21` [20b30], the Ki on human D1 receptors [1] is < 5 nM.
Consider `CN1CCc2cc(Cl)c(O)cc2[C@H]2c3ccc(NCc4ccccc4)cc3CC[C@@H]21` [21a1], for which the Ki on human D1 receptors [1] (setting [3]) is < 5 nM.
With `CN1CCc2cc(Cl)c(O)cc2[C@H]2c3ccc(NCC4CCCC4)cc3CC[C@@H]21` [21a2], on human D1 receptors [1], the Ki is < 5 nM.
For `CC(=O)N(CC1CCCC1)c1ccc2c(c1)CC[C@H]1[C@H]2c2cc(O)c(Cl)cc2CCN1C` [22a2], the Ki at human D1 receptors [1] (setting [3]) lay within 10 to 50 nM.
The same measure, in the same setting: next, `CC(=O)N(CCCCc1ccccc1)c1ccc2c(c1)[C@@H]1c3cc(O)c(Cl)cc3CCN(C)[C@H]1CC2` [22b1]: 10 to 50 nM.
As to `COC(=O)Nc1ccc2c(c1)CC[C@H]1[C@H]2c2cc(O)c(Cl)cc2CCN1C` [24a1], on human D1 receptors [1] (setting [3]), the Ki is < 5 nM.
Still for that read-out and setting: next, `CCOC(=O)Nc1ccc2c(c1)CC[C@H]1[C@H]2c2cc(O)c(Cl)cc2CCN1C` [24a2]: < 5 nM.
Regarding `COc1ccc(OC(=O)Nc2ccc3c(c2)CC[C@H]2[C@H]3c3cc(O)c(Cl)cc3CCN2C)cc1` [24a3], the Ki on human D1 receptors [1] is < 5 nM.
On to `COc1ccc(OC(=O)Nc2cccc3c2CC[C@H]2[C@H]3c3cc(O)c(Cl)cc3CCN2C)cc1` [24b2], for which the Ki on human D1 receptors [1] is < 5 nM.
On to `CN1CCc2cc(Cl)c(O)cc2[C@H]2c3cccc(-c4ncc[nH]4)c3CC[C@@H]21` [25c], for which the Ki on human D1 receptors [1] (setting [3]) was < 5 nM.
Regarding `CN1CCc2cc(Cl)c(O)cc2[C@H]2c3cccc(C#N)c3CC[C@@H]21` [27a], on human D1 receptors [1] (setting [3]), the Ki was < 10 nM.
Same read-out and setting: next, `Oc1cc2c(cc1Cl)CCN[C@H]1CCc3c(-c4ccncc4)cccc3[C@H]21` [29c]: < 5 nM; `CS(=O)(=O)Nc1ccc2c(c1)CC[C@@H]1NCCc3cc(Cl)c(O)cc3[C@@H]21` [30a]: < 10 nM.
As to `CC(=O)N(Cc1ccc([C@H]2CNCCc3cc(Cl)c(O)cc32)cc1)C1CCC1` [34a2], the Ki at human D1 receptors [1] (setting [3]) was < 10 nM.
The same measure, in the same setting: next, `CN1CCc2cc(Cl)c(O)cc2C(c2ccc(NS(C)(=O)=O)cc2)C1` (stereo not drawn) [35a1]: < 5 nM; `CN1CCc2cc(Cl)c(O)cc2C(c2ccc(NS(=O)(=O)c3ccccc3)cc2)C1` (stereo not drawn) [35a2]: < 10 nM; `CN1CCc2cc(Cl)c(O)cc2[C@H]2c3ccc(N(C)S(C)(=O)=O)cc3CC[C@@H]21` [compound 23]: < 5 nM.
